Data on one molecule can be found in patent US20220127682A1, “SELECTION AND TREATMENT OF CANCER WITH COMBINATION THERAPIES” (Massachusetts Institute of Technology, priority 2020, published 2022).

For assay [1], the system named is more than 90 cell lines (multiple cancer types). As to the kind of experiment: Combinatorial drug screening of more than 90 cell lines for more than additive effect. Format: cell-based. The following applies: onvansertib and abiraterone; more than 90 cell lines screened; data not shown.
For assay [2], the system named is Panc 10.05 pancreatic cancer cells. As to the kind of experiment: Cell viability (CellTiter-Glo, 72 h) of drug combinations vs Bliss expected. Format: cell-based. The following applies: onvansertib 33.3 nM plus abiraterone. (In general: Cellular ATP, detected with luciferase, serves as a proxy for viable cell number.)
Assay [3] deals with OAW28 ovarian cancer cells. The description is as above. The format is cell-based. The following applies: onvansertib 15 nM plus abiraterone.
In assay [4] the test system is MV-4-11 acute myeloid leukemia cells. The assay is described as above. The following applies: onvansertib 22.2 nM plus abiraterone. The format is cell-based.
For assay [5], the system named is PSN-1 pancreatic cancer cells. The assay is described as above. Format: cell-based. The settings on record: onvansertib 22.2 nM plus abiraterone.
Assay [6] relates to OCI-AML-3 acute myeloid leukemia cells. The assay is described as above. Format: cell-based. The following applies: onvansertib 22.2 nM plus abiraterone.
For assay [7], the system named is C4-2 castrate resistant prostate cancer cells. Described as above. Format: cell-based. The following applies: C4-2 CRPC cells; combined with abiraterone; 72 hours; Bliss independence.
The subject of assay [8] is LNCaP androgen-dependent prostate cancer cells. The description is as above. Format: cell-based. The settings on record: Bliss independence.
In assay [9] the test system is tumor cells and normal cells. The following applies: cited from earlier work.
Assay [10] deals with large number of cell lines, solid and hematological tumors. The settings on record: cited from earlier work.

`CN1CCN(c2ccc(OC(F)(F)F)c(Nc3ncc4c(n3)-c3c(c(C(N)=O)nn3CCO)CC4)c2)CC1` [onvansertib]: the “cell lines in which the more than additive effect was detected” value in assay [1] was “approximately 30%”. The “response to the combination of abiraterone and PLK1 inhibitor vs expected additive” value in [2] is on record as “do not have a greater than additive response”; in assay [3], “do not have a greater than additive response”; in assay [4], “greater than additive response”; in assay [5], “greater than additive response”; in assay [6], “do not have a greater than additive response”. In addition, in [7], the “tumor cell killing of PLK inhibitor combined with abiraterone, vs expected additive” value is “more than additive”. The “viability effect of PLK1 inhibitor combined with abiraterone, vs expected additive” value in [8] is “No greater than additive effect”. The “sensitivity of tumor cells to induced cell death relative to normal cells” value in [9] is recorded as 10 fold. Further, the “activity in proliferation assays” value in assay [10] is on record as “low nanomolar activity”.
